# Experimental data published in US6624192B1, “Process for production of diacetylrhein” (Madaus AG, priority 1991, dated 2003).
# Assays:
# [1] = tested on: arthrosis induced by the intraarticular administration of vitamin A; assay: Vitamin A arthrosis in rabbits; format: in vivo, rabbit; details: for Clinical signs of arthrosis (disturbances of movement): 7 rabbits
# Description: The effectiveness of diacetylrhein was determined in chronic inflammation models after oral administration. The following experimental models were used: cotton pellet granuloma in rats and arthrosis in rabbits induced by the intraarticular administration of vitamin A. b) Vitamin A arthrosis. An arthrosis-like joint change was initiated in two groups each of 10 rabbits (white New Zealanders) by means of three intraarticular injections of 30,000 IU of Vitamin A over the course of 9 days. 56 days later, 10 animals were treated with 3 mg of diacetylrhein/kg/day for 8 weeks. […] Furthermore, the curative action of diacetylrhein was compared with that of acetylsalicylic acid on each of 7 rabbits which, after 6 days pre-treatment with three times 10,000 IU Vitamin A and a 26 day treatment-free interval for 8 weeks, received either 5 mg of diacetylrhein/kg/day (experimental group) or 15 mg of acetylsalicylic acid/kg/day (positive control group) or remained untreated (negative control group). […] In the negative control group, during the following 8 weeks, the clinical signs of a manifest arthrosis increased.
# cotton pellet granuloma = assay: Cotton pellet granuloma in rats; format: in vivo, rat
# Description: The effectiveness of diacetylrhein was determined in chronic inflammation models after oral administration. The following experimental models were used: cotton pellet granuloma in rats and arthrosis in rabbits induced by the intraarticular administration of vitamin A. a) Cotton pellet granuloma in rats. Young sexually mature rats (n=10) were given 25, 50 or 100 mg diacetylrhein/kg or 5 mg indomethacin/kg or 100 mg acetylsalicylic acid/kg daily for 5 days. A control group only treated with water was also used. Implantation of the pellets took place on the first day of treatment.
# gastric mucosa = assay: Gastric mucosa changes in the rat; format: in vivo
# in vivo = details: rat, mouse, cat
# [2] = tested on: coxarthrosis and gonarthrosis; assay: Clinical double-blind study against naproxen with placebo after-treatment; format: in vivo, patients; details: for Improvement in all test parameters (pain and movement symptoms, functional limitation, compatibility) in comparison with the initial values: 60 days
# Description: 1. The action of diacetylrhein was investigated in coxarthrosis and gonarthrosis in 95 (49/46) patients in a double-blind study against naproxen and subsequent placebo after-treatment. The dosage administered was 50 mg of diacetylrhein twice daily or 750 mg of naproxen daily. The period of treatment was 60 days after a 7 day wash-out phase. The subsequent placebo treatment extended over 60 days.
# Test parameters were the pain and movement symptoms according to a score scale, functional limitation and compatibility.
# [3] = tested on: osteoarthrosis of the spine and of the knee; assay: Clinical open study with physiotherapy control; format: in vivo, patients
# Description: 2. In an open running study with control, there was investigated the action of diacetylrhein against osteoarthrosis of the spine and of the knee in 70 patients (35/35). The dosage administered was 100 mg of diacetylrhein per day. The period of treatment was 60 days and the period of observation was 75 days. The test parameters were pain and movement limitation. The parameters were evaluated according to a score system. The control group comprised 35 patients in the case of which exclusively physiotherapeutic measures were carried out. Physiotherapy was also carried out in the diacetylrhein treatment group.
# localised arthrosis = assay: Clinical single blind crossover study against naproxen; format: in vivo, patients
# Description: 3. The action of diacetylrhein in the case of localised arthrosis in 20 patients was investigated in a single blind crossover study against naproxen. […] Subsequently, there followed a three day wash-out phase and a further treatment with 250 mg of naproxen twice daily for a further 20 days. In the second group, the reverse sequence was used. The period of treatment was, in all, 43 days. The test parameters of pain, compression pain, passive movement pain, functional limitation and swelling were determined according to a score system.
# osteoarthrosis = assay: Clinical randomised double blind compatibility study (oesophagogastroduodenoscopic findings); format: in vivo, patients; details: after 4 weeks
# Description: 4. The action of diacetylrhein was investigated in 23 patients (12/11) with osteoarthrosis in a randomised double blind study using the “double dummy technique” (compatibility study). The dosage administered was 50 mg of diacetylrhein twice daily and 250 mg of naproxen three times daily. The period of treatment was 4 weeks. The test parameters were the oesophagogastroduodenoscopic findings before and after the therapy. Only patients with normal mucosal findings or with slight mucosal lesions (grade 1) were used in the study.
# [4] = crossover study, 43 days in all
compound,measurement,setting,value
"CC(=O)Oc1ccccc1C(=O)O [acetylsalicylic acid, reference compound]",Clinical signs of arthrosis (disturbances of movement),"[1]; 15 mg/kg/day for 8 weeks, positive control group",improved significantly
"CC(=O)Oc1cccc2c1C(=O)c1c(OC(C)=O)cc(C(=O)O)cc1C2=O [diacetylrhein, Diacetylrhein]",Fresh and dry weights of the granuloma,"cotton pellet granuloma; rats n=10, oral, 25, 50 or 100 mg/kg daily for 5 days, in comparison with the control group",significant and clearly dosage-dependent reduction
same,Weights of the thymus and adrenals,"cotton pellet granuloma; rats, during the 5 days treatment",did not change
same,Action on granuloma compared with reference drugs,"cotton pellet granuloma; rats, oral, 100 mg diacetylrhein/kg daily for 5 days vs 5 mg indomethacin/kg or 100 mg acetylsalicylic acid/kg",corresponded to about the action of 5 mg indomethacin or of 100 mg acetylsalicylic acid
same,Clinical signs of arthrosis (disturbances of movement),"[1]; 5 mg/kg/day for 8 weeks, curative",improved significantly
same,Macroscopically and microscopically recognisable joint changes,"[1]; rabbits, 3 mg/kg/day for 8 weeks, in comparison with the control group",significantly reduced
same,Erosions of the gastric mucosa,gastric mucosa; single administration of 400 mg/kg,did not give rise to any erosions
same,Mucosal damage,gastric mucosa; twice daily 100 mg/kg over 3 days,did not initiate any mucosal damage
same,LD50,in vivo,119 to 339 mg/kg
same,LD50,in vivo; po,1900 to 7900 mg/kg
same,"Improvement in all test parameters (pain and movement symptoms, functional limitation, compatibility) in comparison with the initial values","[2]; 50 mg twice daily, P<0.01",statistically significant rate of improvement
same,"Night pain and pressure pain after discontinuation, in comparison with the naproxen/placebo collective","[2]; 30 days after discontinuation, 5% level",difference was also verified
same,"Spontaneous pain and active and passive movement pain after discontinuation, in comparison with the naproxen/placebo collective","[2]; days 90 and 120, placebo after-treatment, P<0.01",statistically significant superiority
same,Effect after discontinuation of the treatment,"[3]; 100 mg per day for 60 days, observation 75 days",continuing therapeutic effect (hang-over effect)
same,"Pain and movement limitation (all parameters, score system) versus control group","[3]; 100 mg per day, 60 days, plus physiotherapy, control physiotherapy only",statistically significant superiority
same,"Pain, compression pain, passive movement pain, functional limitation and swelling (score system) in comparison with naproxen","localised arthrosis; 50 mg twice daily for 20 days vs 250 mg naproxen twice daily for 20 days, crossover",superiority
same,Clinical laboratory parameters,localised arthrosis; [4],no changes
same,Side effects,localised arthrosis; [4],No noteworthy side effects
same,Patients with mucosal lesions of grade 2 (endoscopic findings),"osteoarthrosis; 50 mg twice daily, one case",10%
CC(C)Cc1ccc(C(C)C(=O)O)cc1 (stereo not shown) [ibuprofen],Erosions of the gastric mucosa,"gastric mucosa; in vivo, 200 mg/kg",distinct mucosal damages
COc1ccc2c(c1)c(CC(=O)O)c(C)n2C(=O)c1ccc(Cl)cc1 [indomethacin],Mucosal damage,"gastric mucosa; in vivo, 10 mg/kg",certainly did
same,Diameter of the erosions,"gastric mucosa; in vivo, 10 mg/kg, 3 days",1 to 3 mm
same,Erosions of the gastric mucosa,"gastric mucosa; in vivo, 20 mg/kg",distinct mucosal damages
"COc1ccc2cc([C@H](C)C(=O)O)ccc2c1 [naproxen, reference compound]","Improvement in all test parameters (pain and movement symptoms, functional limitation, compatibility) in comparison with the initial values","[2]; 750 mg daily, P<0.05",statistically significant rate of improvement
same,"Patients with mucosal lesions of grade 2, 3 and 4 (endoscopic findings)","osteoarthrosis; 250 mg three times daily, 5 patients",50%
